Legend:
Periplaneta americana = experiment: Toxic effect in Periplaneta americana (American cockroach) assessed as paralyzed insects after 24 hr of abdomen compound injection by insecticidal assay; assay type: functional
[1] = target: T1, Nicotinic acetylcholine receptor alpha8 subunit (Periplaneta americana) (UniProt H6TY12); experiment: Neuroblocking activity in Periplaneta americana (American cockroach) nicotinic acetylcholine receptor in abdominal fifth and sixth ganglia nerve assessed as neuroblocking concentration by neurophysiological test
T1 sequence (whole entry): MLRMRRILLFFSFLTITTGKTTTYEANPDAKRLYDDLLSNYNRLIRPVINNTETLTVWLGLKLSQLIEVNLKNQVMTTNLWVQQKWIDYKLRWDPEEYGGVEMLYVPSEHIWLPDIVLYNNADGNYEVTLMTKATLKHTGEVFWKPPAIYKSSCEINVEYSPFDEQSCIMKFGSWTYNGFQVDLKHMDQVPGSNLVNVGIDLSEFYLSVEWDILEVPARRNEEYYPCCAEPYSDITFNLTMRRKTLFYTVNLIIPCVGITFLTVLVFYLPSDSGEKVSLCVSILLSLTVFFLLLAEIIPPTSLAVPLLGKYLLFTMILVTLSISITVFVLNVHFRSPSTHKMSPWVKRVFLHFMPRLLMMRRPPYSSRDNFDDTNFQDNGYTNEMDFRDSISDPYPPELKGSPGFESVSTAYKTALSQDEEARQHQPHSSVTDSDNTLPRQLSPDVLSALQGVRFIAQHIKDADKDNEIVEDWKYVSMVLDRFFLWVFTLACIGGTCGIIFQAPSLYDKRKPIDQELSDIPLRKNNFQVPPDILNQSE

[2] = Dissociation constant, pKa of the compound at pH 7.3; assay type: physicochemical
[3] = Hydrophobicity, log P of the compound in octanol-water by shaking-flask method; assay type: physicochemical
[4] = Apparent hydrophobicity, log D of the compound in Octanol-buffer; assay type: physicochemical; conditions: for logD: octanol/buffer; for logD(app): octanol/water

| Compound | pKa [2] | logD [4] | other results |
| --- | --- | --- | --- |
| O=[N+]([O-])/C=C1\NCCN1Cc1ccc(Cl)nc1 | – | – | log(1/MLD) (Periplaneta americana): 10.19; log(1/BC) [1]: 5.02 |
| O=[N+]([O-])/N=C1\NCCCN1Cc1ccc(Cl)nc1 | – | – | log(1/MLD) (Periplaneta americana): 10.12; log(1/BC) [1]: 5.35 |
| O=[N+]([O-])/C=C1\SCCN1Cc1ccc(Cl)nc1 | – | – | log(1/MLD) (Periplaneta americana): 10.37; log(1/BC) [1]: 6.19 |
| CN1CCN(Cc2ccc(Cl)nc2)/C1=N/[N+](=O)[O-] | – | – | log(1/MLD) (Periplaneta americana): 8.62; log(1/BC) [1]: 3.81 |
| O=[N+]([O-])/N=c1\ccccn1Cc1ccc(Cl)nc1 | – | – | log(1/MLD) (Periplaneta americana): 9.99; log(1/BC) [1]: 5.09 |
| O=[N+]([O-])/N=c1\ccccn1Cc1cnc(Cl)s1 | – | – | log(1/MLD) (Periplaneta americana): 9.74; log(1/BC) [1]: 5.75 |
| O=[N+]([O-])/C=C1\CCCN1Cc1ccc(Cl)nc1 | – | – | log(1/MLD) (Periplaneta americana): 10.44; log(1/BC) [1]: 6.43 |
| O=[N+]([O-])/C=C1\NCCN1Cc1cnc(Cl)s1 | – | – | log(1/MLD) (Periplaneta americana): 10.24; log(1/BC) [1]: 5.73 |
| O=[N+]([O-])/N=C1\SCCN1Cc1cnc(Cl)s1 | – | – | log(1/MLD) (Periplaneta americana): 8.91; log(1/BC) [1]: 6 |
| O=[N+]([O-])/C=C1\CCCN1Cc1cnc(Cl)s1 | – | – | log(1/MLD) (Periplaneta americana): 10.06; log(1/BC) [1]: 6.31 |
| CN1CCN(Cc2ccc(Cl)nc2)/C1=C/[N+](=O)[O-] | – | – | log(1/MLD) (Periplaneta americana): 8.07; log(1/BC) [1]: 3.84 |
| O=[N+]([O-])/N=c1\[nH]ccn1Cc1cnc(Cl)s1 | – | – | log(1/MLD) (Periplaneta americana): 8.82; log(1/BC) [1]: 4.61 |
| O=[N+]([O-])/N=c1\sccn1Cc1cnc(Cl)s1 | – | – | log(1/MLD) (Periplaneta americana): 8.85; log(1/BC) [1]: 5.79 |
| COc1ccc(CCN(C)CCCC(C#N)(c2ccc(OC)c(OC)c2)C(C)C)cc1OC (stereo not given) | 1.36 | – | – |
| O=[N+]([O-])/N=c1\sccn1Cc1ccc(Cl)nc1 | – | – | log(1/MLD) (Periplaneta americana): 10.25; log(1/BC) [1]: 5.68 |
| CCCC(=O)Nc1ccc(OCC(O)CNC(C)C)c(C(C)=O)c1 (stereo not given) [ACEBUTOLOL] | 2.11 | – | – |
| CC(=O)Nc1ccc(O)cc1 [ACETAMINOPHEN] | 0 | – | – |
| C=CCc1ccccc1OCC(O)CNC(C)C (stereo not given) [ALPRENOLOL] | – | 1.35 | logP [3]: 2.89 |
| Cc1c(N(C)C)c(=O)n(-c2ccccc2)n1C [AMINOPYRINE] | 0 | – | – |
| Cc1cc(=O)n(-c2ccccc2)n1C [ANTIPYRINE] | 0 | – | – |
| CCNc1nc(Cl)nc(NC(C)C)n1 [ATRAZINE] | – | 2.61 | – |
| CC(C)N1C(=O)c2ccccc2NS1(=O)=O [BENTAZON] | – | – | logP [3]: 2.8 |

| Compound | pKa [2] | logD [4] | other results |
| --- | --- | --- | --- |
| CCOP(=S)(NC(C)CC)Oc1cc(C)ccc1[N+](=O)[O-] (stereo not given) [BUTAMIFOS] | 0 | 4.62 | – |
| O=C(N[C@H](CO)[C@H](O)c1ccc([N+](=O)[O-])cc1)C(Cl)Cl [CHLORAMPHENICOL] | 0 | – | – |
| Cc1cc(C)cc(C(=O)N(NC(=O)c2ccc3c(c2C)CCCO3)C(C)(C)C)c1 [CHROMAFENOZIDE] | – | 2.7 | – |
| Clc1cccc(Cl)c1N=C1NCCN1 [CLONIDINE] | 0.75 | 0.93 | – |
| C[C@]12C[C@H](O)[C@H]3[C@@H](CCC4=CC(=O)CC[C@@]43C)[C@@H]1CC[C@@H]2C(=O)CO [CORTICOSTERONE] | 0 | 1.94 | – |
| O=c1ccc2ccccc2o1 [COUMARIN] | 0 | – | – |
| O=[N+]([O-])Nc1nccn1Cc1ccc(Cl)nc1 [DEHYDROIMIDACLOPRID] | – | – | log(1/MLD) (Periplaneta americana): 8.72; log(1/BC) [1]: 4.31 |
| C[C@@H]1C[C@H]2[C@@H]3CCC4=CC(=O)C=C[C@]4(C)[C@@]3(F)[C@@H](O)C[C@]2(C)[C@@]1(O)C(=O)CO [DEXAMETHASONE] | 0 | 2.01 | – |
| COc1ccc([C@@H]2Sc3ccccc3N(CCN(C)C)C(=O)[C@@H]2OC(C)=O)cc1 [DILTIAZEM] | 0.76 | 2.29 | – |
| CCOP(=S)(OCC)Oc1cc(C)nc(C(C)C)n1 [DIMPYLATE] | – | 3.3 | – |
| COP(=S)(OC)Oc1ccc([N+](=O)[O-])c(C)c1 [FENITROTHION] | 0 | 3.3 | – |
| CCC(C)c1ccccc1OC(=O)NC (stereo not given) [FENOBUCARB] | 0 | 2.78 | – |
| COP(=S)(OC)Oc1ccc(SC)c(C)c1 [FENTHION] | 0 | 4.09 | – |
| CC(C)(C)N(NC(=O)c1ccc(Cl)cc1)C(=O)c1ccccc1 [HALOFENOZIDE] | 0 | 3.22 | – |
| C[C@]12CCC(=O)C=C1CC[C@@H]1[C@@H]2[C@@H](O)C[C@@]2(C)[C@H]1CC[C@]2(O)C(=O)CO [HYDROCORTISONE] | 0 | 1.61 | – |
| CC(C)Cc1ccc(C(C)C(=O)O)cc1 (stereo not given) [IBUPROFEN] | – | 1.54 | – |
| O=[N+]([O-])/N=C1\NCCN1Cc1ccc(Cl)nc1 [IMIDACLOPRID] | – | – | log(1/MLD) (Periplaneta americana): 10.15; log(1/BC) [1]: 5.64 |
| O=[N+]([O-])NC1=NCCN1Cc1ccc(Cl)nc1 [IMIDACLOPRID] | 0 | 0.59 | – |
| O=[N+]([O-])/N=C1\NCCN1Cc1cnc(Cl)s1 [IMIDACLOTHIZ] | – | – | log(1/MLD) (Periplaneta americana): 9.62; log(1/BC) [1]: 5.97 |
| CC(C)c1cc(NC(=O)N(C)C)no1 [ISOURON] | – | – | logP [3]: 1.98 |
| CC(C(=O)O)c1cccc(C(=O)c2ccccc2)c1 (stereo not given) [KETOPROFEN] | – | 1.1 | – |
| CC(CCc1ccccc1)NCC(O)c1ccc(O)c(C(N)=O)c1 (stereo not given) [LABETALOL] | 2.1 | 1.68 | – |

| Compound | pKa [2] | logD [4] | other results |
| --- | --- | --- | --- |
| COc1nn(CSP(=S)(OC)OC)c(=O)s1 [METHIDATHION] | 0 | 2.5 | – |
| COc1cccc(C(=O)NN(C(=O)c2cc(C)cc(C)c2)C(C)(C)C)c1C [METHOXYFENOZIDE] | 0 | 3.7 | – |
| COCCc1ccc(OCC(O)CNC(C)C)cc1 (stereo not given) [METOPROLOL] | – | 0.24 | – |
| CC(C)(C)NCC(O)COc1cccc2c1CC(O)C(O)C2 (stereo not given) [NADOLOL] | 2.37 | -0.88 | – |
| CCn1cc(C(=O)O)c(=O)c2cc(F)c(N3CCNCC3)cc21 [NORFLOXACIN] | 2.08 | – | logD(app) [4]: -2.42 |
| C=CCOc1ccccc1OCC(O)CNC(C)C (stereo not given) [OXPRENOLOL] | 2.3 | 0.56 | – |
| CCOC(=O)C(SP(=S)(OC)OC)c1ccccc1 (stereo not given) [PHENTHOATE] | 0 | 3.96 | logP [3]: 3.96 |
| O=C1NC(=O)C(c2ccccc2)(c2ccccc2)N1 [PHENYTOIN] | – | 2.26 | – |
| CC(C)NCC(O)COc1cccc2[nH]ccc12 (stereo not given) [PINDOLOL] | 2.24 | 0.25 | – |
| CN1CCN(CC(=O)N2c3ccccc3C(=O)Nc3cccnc32)CC1 [PIRENZEPINE] | 0.7 | – | logD(app) [4]: -0.37 |
| CN1C(C(=O)Nc2ccccn2)=C(O)c2ccccc2S1(=O)=O [PIROXICAM] | – | 0.49 | – |
| CC(=O)Nc1ccc(OCC(O)CNC(C)C)cc1 (stereo not given) [PRACTOLOL] | 2.1 | -0.62 | – |
| C[C@]12C=CC(=O)C=C1CC[C@@H]1[C@@H]2[C@@H](O)C[C@@]2(C)[C@H]1CC[C@]2(O)C(=O)CO [PREDNISOLONE] | 0 | – | – |
| CNC(=C[N+](=O)[O-])NCCSCc1ccc(CN(C)C)o1 [RANITIDINE] | 0.88 | – | logD(app) [4]: -0.32 |
| CC(C)(C)N(NC(=O)c1ccccc1)C(=O)c1ccccc1 [RH-5849] | 0 | 2.45 | – |
| O=C(O)c1ccccc1O [SALICYLIC ACID] | – | -0.63 | – |
| COP1(=S)OCc2ccccc2O1 (stereo not given) [SALITHION] | 0 | 2.67 | – |
| CCc1ccc(C(=O)NN(C(=O)c2cc(C)cc(C)c2)C(C)(C)C)cc1 [TEBUFENOZIDE] | 0 | – | – |
| Cc1c(F)c(F)c(COC(=O)[C@@H]2[C@H](/C=C(\Cl)C(F)(F)F)C2(C)C)c(F)c1F [TEFLUTHRIN] | – | – | logP [3]: 6 |
| C[C@]12CC[C@H]3[C@@H](CCC4=CC(=O)CC[C@@]43C)[C@@H]1CC[C@@H]2O [TESTOSTERONE] | 0 | – | – |
| CCN(CC)C(=O)SCc1ccc(Cl)cc1 [THIOBENCARB] | 0 | 3.42 | – |
| CCCN(CCC)c1c([N+](=O)[O-])cc(C(F)(F)F)cc1[N+](=O)[O-] [TRIFLURALIN] | – | – | logP [3]: 5.07 |

— ChEMBL document CHEMBL3046441, “Importance of physicochemical properties for the design of new pesticides” (J Agric Food Chem, 2011)
